Laboratory results reported in ChEMBL document CHEMBL1137256, “Iminosugars as potential inhibitors of glycogenolysis: structural insights into the molecular basis of glycogen phosphorylase inhibition” (J Med Chem, 2006).
Each block holds one compound with its values, some of them ahead of it. Calls of active or inactive are those of the source. No cut-off for these calls is given here.

Key:
[1] = test system: Hepatocyte; assay: cells; settings: Homo sapiens
Description: Inhibition of glycogen degradation in hepatocytes

[2] = test system: Hepatocyte; assay: cells; settings: Homo sapiens; remark: listed apart in the source
Description: Inhibition of glucagon-stimulated glycogen degradation in hepatocytes

[3] = biological target: T1, Glycogen phosphorylase, liver form (Rattus norvegicus, UniProt P09811); assay: Inhibition of phosphorylated form of rat liver glycogen phosphorylase
T1 sequence (P09811 whole entry): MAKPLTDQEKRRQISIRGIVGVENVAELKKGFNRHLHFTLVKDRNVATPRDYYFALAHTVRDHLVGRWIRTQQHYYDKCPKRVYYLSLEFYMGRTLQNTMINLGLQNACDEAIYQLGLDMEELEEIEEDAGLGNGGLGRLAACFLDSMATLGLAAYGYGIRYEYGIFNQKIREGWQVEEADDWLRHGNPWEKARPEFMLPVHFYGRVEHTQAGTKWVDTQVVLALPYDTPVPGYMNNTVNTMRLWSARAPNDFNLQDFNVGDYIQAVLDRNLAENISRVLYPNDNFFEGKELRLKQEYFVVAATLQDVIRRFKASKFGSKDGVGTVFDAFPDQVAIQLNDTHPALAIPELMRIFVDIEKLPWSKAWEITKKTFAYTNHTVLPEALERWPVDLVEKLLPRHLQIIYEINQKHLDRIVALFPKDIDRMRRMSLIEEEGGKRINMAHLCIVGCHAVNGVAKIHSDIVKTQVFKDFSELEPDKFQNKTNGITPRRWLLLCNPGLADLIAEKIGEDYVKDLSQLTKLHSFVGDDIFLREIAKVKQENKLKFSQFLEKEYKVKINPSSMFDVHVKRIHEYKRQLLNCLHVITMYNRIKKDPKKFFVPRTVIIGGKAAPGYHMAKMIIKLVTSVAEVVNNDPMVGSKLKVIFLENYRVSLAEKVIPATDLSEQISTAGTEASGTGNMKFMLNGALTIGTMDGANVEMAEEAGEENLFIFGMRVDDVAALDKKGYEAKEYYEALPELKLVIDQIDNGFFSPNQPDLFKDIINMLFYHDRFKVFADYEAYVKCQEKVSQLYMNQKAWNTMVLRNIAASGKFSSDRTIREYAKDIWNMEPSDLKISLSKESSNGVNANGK

[4] = test system: Liver; assay: Inhibition of liver […]; format: functional, tissue-based; settings: Homo sapiens
[5] = species: Mus musculus; assay: Antihyperglycemic activity in obese mouse; format: functional, organism-based

Compound: OC[C@H]1CNC[C@@H](O)[C@@H]1O [AFEGOSTAT]
IC50 [1]: 3000 nM
IC50 [2]: 2000 nM

IC50 [3]: 1220 nM
Compound: OC[C@H]1CN(CCCc2ccccc2)C[C@@H](O)[C@@H]1O

Compound: OC[C@H]1NC[C@@H](O)[C@@H]1O
Activity [4]: Active
Activity [5]: Active
